Where a name gives a salt, the structure may show the parent alone.
Cc1nc(N2CCCCC2)c2[nH]c(-c3ccc(C(F)(F)F)cc3)c(C)c2n1.Cl showed a melting point of over 280 °C. Compound COc1ccc(-c2[nH]c3c(N4CCCCC4)nc(C)nc3c2C)cc1.Cl has a melting point of over 280 °C. Compound Cc1nc(N2CCCCC2)c2[nH]c(-c3ccccc3)c(F)c2n1.Cl has a melting point of over 280 °C. Work on COc1ccc(Cc2cc3nc(C)nc(N4CCCCC4)c3[nH]2)cc1.Cl yielded a melting point of 263 to 267 °C. With Cc1nc(N2CCCCC2)c2[nH]c(Cc3ccc(F)cc3)cc2n1.Cl the melting point was 254 to 255 °C. With Cc1nc(N2CCCCC2)c2[nH]c(C)c(-c3ccc(F)cc3)c2n1.Cl the melting point was over 280 °C. Work on Cc1nc(N2CCCCC2)c2[nH]c(COc3ccccc3)cc2n1.Cl yielded a melting point of 238 to 239 °C. Cc1nc(N2CCCCC2)c2[nH]c(-c3ccc(F)c(F)c3)c(C)c2n1.Cl gave a melting point of over 280 °C. With Cc1nc(N2CCCCC2)c2sc(C(C)(C)C)cc2[n+]1[O-].Cl the melting point was 202 to 203 °C (dec.). Compound Cc1cc(N2CCCCC2)c2oc(-c3ccccc3)cc2n1.Cl has a melting point of over 280 °C. CCCCc1cc2nc(C)cc(N3CCCCC3)c2o1.Cl showed a melting point of 172 to 173 °C. With Cc1nc(N2CCCCC2)c2[nH]c(-c3ccc(F)cc3)cc2n1.Cl the melting point was 287 to 289 °C (dec.). Work on Cl.c1csc(-c2cc3ncnc(N4CCCCC4)c3[nH]2)c1 yielded a melting point of over 280 °C. With Cl.c1coc(-c2cc3ncnc(N4CCCCC4)c3[nH]2)c1 the melting point was over 280 °C. Compound Cc1c(-c2ccccc2)[nH]c2c(N3CCCCC3)ncnc12.Cl has a melting point of 281 to 282.5 °C. Work on Cc1nc(N2CCCCC2)c2[nH]c(-c3ccc(N)cc3)cc2n1 (as salt: hydrochloride) yielded a melting point of over 280 °C. For Cc1nc(N2[C@H](C)CCC[C@@H]2C)c2[nH]c(-c3ccc(F)cc3)cc2n1 (as salt: hydrochloride) (hydrate or solvate), the melting point was over 275 °C. Compound CC(C)Cc1nc(N2CCCCC2)c2[nH]c(-c3ccccc3)cc2n1 (as salt: hydrochloride) (hydrate or solvate) has a melting point of 226 to 229.5 °C. For COc1nc(N2CCCCC2)c2[nH]c(-c3ccccc3)cc2n1 (as salt: hydrochloride) (hydrate or solvate), the melting point was 270 to 276 °C. For CNc1nc(N2CCCCC2)c2[nH]c(-c3ccccc3)cc2n1 (as salt: hydrochloride) (hydrate or solvate), the melting point was 195 to 200 °C. For c1ccc(-c2cc3nc(N4CCN(c5ccccc5)CC4)nc(N4CCCCC4)c3[nH]2)cc1 (as salt: hydrochloride) (hydrate or solvate), the melting point was 267.5 to 270 °C. For c1ccc(-c2cc3nc(N4CCCC4)nc(N4CCCCC4)c3[nH]2)cc1 (as salt: hydrochloride) (hydrate or solvate), the melting point was over 272 °C. With Cc1nc(N2CC=CCC2)c2sc(-c3ccccc3)cc2n1 (as salt: hydrochloride) (hydrate or solvate) the melting point was 279 to 281 °C. Work on Cc1nc(N2CCCCC2)c2oc(-c3ccccc3)cc2n1 (as salt: hydrochloride) (hydrate or solvate) yielded a melting point of over 290 °C. Compound Cc1nc(N2CC=CC2)c2[nH]c(-c3ccccc3)cc2n1 (as salt: hydrochloride) (hydrate or solvate) [Example 61, 2-Methyl-6-phenyl-4-(pyrrolinyl)pyrrolo[3,2-d]pyrimidine Hydrochloride Monohydrate] has a melting point of 278 to 278.3 °C. In the case of Cc1nc(N2CCCCC2C)c2[nH]c(-c3ccccc3)cc2n1 (stereo not shown) (as salt: hydrochloride) (hydrate or solvate) [Example 63, 2-Methyl-6-phenyl-4-(2-methylpiperidinyl)pyrrolo(3,2-d)pyrimidine Hydrochloride Monohydrate], the melting point is reported as 268 to 269 °C. CCC1CCCCN1c1nc(C)nc2cc(-c3ccccc3)[nH]c12 (stereo not shown) (as salt: hydrochloride) (hydrate or solvate) [Example 64, 2-Methyl-6-phenyl-4-(2-ethylpiperidinyl)pyrrolo[3,2-d]pyrimidine Hydrochloride Hydrate] showed a melting point of 228 to 229 °C. With Nc1nc(N2CCCCC2)c2[nH]c(-c3ccccc3)cc2n1 (as salt: hydrochloride) (hydrate or solvate) [Example 66e, 6-Phenyl-4-piperidylpyrrolo[3,2-d]pyrimidine-2-yl Amine Hydrochloride Hydrate] the melting point was > 300 °C (dec.). With Cc1nc(N2CCCCC2)c2[nH]c(-c3cccc(N)c3)cc2n1 (as salt: hydrochloride) (hydrate or solvate) [Example 187, 3-(2-Methyl-4-piperidylpyrrolo[4,5-d]pyrimidin-6-yl)phenylamine Hydrochloride Monohydrate] the melting point was over 275 °C. Cc1nc(N2CCCC2)c2[nH]c(-c3ccccc3)cc2n1 (as salt: hydrochloride) (hydrate or solvate) [Example 193, 2-Methyl-6-phenyl-4-pyrrolidinylpyrrolo[3,2-d]pyrimidine Hydrochloride Monohydrate] gave a melting point of over 296 °C. Cc1nc(NC[C@H]2CC[C@H](CNS(=O)(=O)c3cccc4ccccc34)CC2)c2[nH]c(-c3ccccc3)cc2n1 (as salt: hydrochloride) (hydrate or solvate) [Example 194, trans-[(4-{[(2-Methyl-6-phenylpyrrolo[2,3-e]pyrimidin-4-yl)amino]methyl}cyclohexyl)methyl](naphthylsulfonyl)amine Hydrochloride Hydrate] showed a melting point of 165 to 170 °C. For CCCc1nc(N2CCCCC2)c2[nH]c(-c3ccccc3)cc2n1 (as salt: hydrochloride) (hydrate or solvate) [Example 196c, 6-Phenyl-4-piperidyl-2-propylpyrrolo[3,2-d]pyrimidine Hydrochloride Monohydrate], the melting point was 258 to 262.5 °C. Cc1nc(N2CC=CC2)c2[nH]c(-c3cccc(C(F)(F)F)c3)cc2n1 (as salt: hydrochloride) (hydrate or solvate) [Example 197d, 2-Methyl-4-(3-pyrrolinyl)-6-[3-(trifluoromethyl)phenyl]pyrrolo[3,2-d]pyrimidine Hydrochloride Monohydrate] showed a melting point of over 270 °C. In the case of Cc1nc(N2CC=CC2)c2[nH]c(-c3cccc(Cl)c3)cc2n1 (as salt: hydrochloride) (hydrate or solvate) [Example 198, 6-(3-Chlorophenyl)-2-methyl-4-(3-pyrrolinyl)pyrrolo[3,2-d]pyrimidine Hydrochloride Hydrate], the melting point is reported as 287.5 to 293 °C. Work on CCc1nc(N2CCc3ccccc3C2)c2[nH]c(-c3ccccc3)cc2n1 (as salt: hydrochloride) (hydrate or solvate) [Example 202, 2-Ethyl-6-phenyl-4-(2-1,2,3,4-tetrahydroisoquinolyl)pyrrolo[3,2-d]pyrimidine Hydrochloride Monohydrate] yielded a melting point of 170 to 171.5 °C. In the case of CN(C)c1nc(N2CCCCC2)c2[nH]c(-c3ccccc3)cc2n1 (as salt: hydrochloride) (hydrate or solvate) [Example 203, Hydrochloride Hydrate], the melting point is reported as over 300 °C. With Fc1ccc(-c2cc3nc(C4CC4)nc(N4CCCCC4)c3[nH]2)cc1 (as salt: hydrochloride) (hydrate or solvate) [Example 209c, 2-Cyclopropyl-6-(4-fluorophenyl)-4-piperidylpyrrolo[3,2-d]pyrimidine Hydrochloride Hydrate] the melting point was over 280 °C. With Cc1nc(N2CCc3ccccc32)c2[nH]c(-c3ccccc3)cc2n1 (as salt: hydrochloride) (hydrate or solvate) [Example 215, 4-Indolinyl-2-methyl-6-phenylpyrrolo[3,2-d]pyrimidine Hydrochloride Hydrate] the melting point was over 300 °C. Cc1nc(N2CC=CC2)c2oc(-c3ccccc3)cc2n1 (as salt: hydrochloride) (hydrate or solvate) [Example 216c, 2-Methyl-6-phenyl-4-(3-pyrrolinyl)furano[3,2-d]pyrimidine Hydrochloride Hydrate] showed a melting point of 279 to 280 °C. Cc1nc(N2CCCCC2)c2sc(-c3ccc(F)cc3)cc2n1 (as salt: hydrochloride) (hydrate or solvate) [Example 217, 6-(4-Fluorophenyl)-2-methyl-4-piperidylthiopheno[3,2-d]pyrimidine Hydrochloride Hydrate] showed a melting point of 285 to 287 °C. With Cc1nc(-n2cccn2)c2[nH]c(-c3ccccc3)cc2n1 (as salt: hydrochloride) (hydrate or solvate) [Example 218, 2-Methyl-6-phenyl-4-pyrazolypyrrolo[3,2-d]pyrimidine Hydrochloride Hydrate] the melting point was 253 to 254 °C. Work on Cc1nc(N2C(C)C=CC2C)c2[nH]c(-c3ccccc3)cc2n1 (stereo not shown) (as salt: hydrochloride) (hydrate or solvate) [Example 220, 4-(2,5-Dimethyl(3-pyrrolinyl)-2-methyl-6-phenylpyrrolo[3,2-d]pyrimidine Hydrochloride Hydrate] yielded a melting point of 242 to 243 °C. Cc1nc(N2CCc3ccccc3C2)c2sc(-c3ccccc3)cc2n1 (as salt: hydrochloride) (hydrate or solvate) [Example 221b, 2-Methyl-6-phenyl-4-[2-1,2,3,4-tetrahydroisoquinolyl)thiopheno[3,2-d]pyrimidine Hydrochloride Hydrate] gave a melting point of 263 to 265 °C. For Cc1nc(N2CCN(S(=O)(=O)c3ccccc3)CC2)c2[nH]c(-c3ccccc3)cc2n1 (as salt: hydrochloride) (hydrate or solvate) [Example 227, 1-(2-Methyl-6-phenylpyrrolo[2,3-e]pyrimidin-4-yl(phenylsulfonyl)piperazine Hydrochloride Monohydrate], the melting point was 242 to 243 °C. Work on Cc1nc(N2CCCCC2)c2[nH]c(-c3ccccc3)cc2n1 (as salt: hydrochloride) [Example 35, 2-methyl-6-phenyl-4-(piperidinyl)pyrrolo[3,2-d]pyrimidine] yielded a melting point of 293 to 294 °C. Cc1nc(N2CCCCC2CCO)c2[nH]c(-c3ccccc3)cc2n1 (stereo not shown) (as salt: hydrochloride) [Example 62, 2-Methyl-6-phenyl-4-(2-piperidineethanolyl)pyrrolo(3,2-d)pyrimidine Hydrochloride] showed a melting point of 273 to 273.5 °C.
